Entries after “also recorded” stand apart in the source; their conditions may differ.
Experiments:
Assay type in all cases: cell-based, human
HIF-1α protein = HIF-1α protein accumulation, western blot; details: foam cells; for antagonism of adenosine induced HIF-1α protein accumulation: antagonist 100 nM, adenosine 100 μM, hypoxia
Procedure: Hypoxic exposures were done in a modular incubator chamber and flushed with a gas mixture containing 1% O2, 5% CO2 and balance N2 (MiniGalaxy, RSBiotech, Irvine, Scotland).
U937 cells were induced to differentiate into macrophages by treatment with phorbol myristate acetate (PMA, 40 nM) for 72 h. […] All dialyses were carried out with Pierce Slide-A-Lyzer cassettes (10,000 molecular weight cut-off).
Whole cell lysates were prepared as described previously (27). […] In experiments aimed to detect HIF, western blot analyses were performed using antibody against HIF-1α (1:250 dilution) and […] (1:1000 dilution) in 5% non-fat dry milk in PBS/0.1°)/0 Tween-20 overnight at 4° C. The protein concentration was determined using BCA protein assay kit (Pierce, Rockford, Ill.). Tubulin (1:250) was used to ensure equal protein loading. Immunoreactivity was assessed and quantified by using a VersaDoc Imaging System (Bio-Rad).

IL-8 = IL-8 secretion by foam cells, ELISA; details: for block of adenosine-induced IL-8 increase: antagonist 100 nM
Procedure: (§1) U937 cells were induced to differentiate into macrophages by treatment with phorbol myristate acetate (PMA, 40 nM) for 72 h. Before use oxLDL was dialyzed against 1 L of 0.15 M sodium chloride and 0.3 mM EDTA (pH 7.4) for 12 h at 4° C., then against RPMI 1640 medium (two changes, 1 L/each change) for 24 h. All dialyses were carried out with Pierce Slide-A-Lyzer cassettes (10,000 molecular weight cut-off). After dialysis, lipoproteins were sterilized by passing them through a 0.45 μm (pore-size) filter, then added (50-100 μg/mL, Intracel, Frederick, Md.) to PMA-treated U937 cells and incubated in serum-free RPMI 1640 for 48 h.
(§2) The levels of VEGF and IL-8 protein secreted by the cells in the medium were determined by VEGF and IL-8 ELISA kits (R&D Systems) according to the manufacturer's instructions. The data were presented as mean±SD from three independent experiments.

VEGF = VEGF secretion by foam cells, ELISA; details: adenosine 100 μM, 24 h, hypoxic; for effect on adenosine-induced VEGF increase: antagonist 100 nM, U937 derived foam cells
Procedure: as §1, §2

PMA-treated U937 cells = experiment: Foam cell formation, Oil red O stain analysis; details: oxLDL 50 μg/mL, adenosine 100 μM, 24 h
Procedure: as §1
Treatment of PMA-differentiated U937 cells with test agents was performed 2 h before addition of oxLDL. After exposition to oxLDL under hypoxia for 24 h, U937 cells were fixed in phosphate buffered saline-buffered 4% paraformaldehyde solution for 15 min and then air dried. Oil red O (in 60% isopropanol) staining was done for 15 min essentially as described previously by Kalayoglu and Byrne (Infect. Immun. 1998, 66, 5067-5072). Cells were viewed under a bright-field microscope in 100× fields using a Nikon's Eclipse E800 microscope. Foam cells were defined as macrophages in which cytoplasm was filled with Oil red O-stainable lipid droplets.

[1] = adenosine 100 μM, U937 derived foam cells, hypoxic

SMILES	block of adenosine-induced IL-8 increase (IL-8; [1])	antagonism of adenosine induced HIF-1α protein accumulation (HIF-1α protein)	effect on adenosine-induced VEGF increase (VEGF)	other results
CCNC(=O)[C@H]1O[C@@H](n2cnc3c(Nc4ccc(OCC(=O)Nc5ccccc5)cc4)ncnc32)[C@H](O)[C@@H]1O [1-deoxy-1-[6-{4-[(phenylcarbamoyl)-methoxy]phenylamino}-9H-purin-9-yl]-N-ethyl-β-D-ribofuranuronamide]				induction of HIF-1α protein by adenosine receptor agonists (HIF-1α protein; CHA 10, 100 nM, CGS 21680 500, 1000 nM, A2B agonist 10, 100 nM, CI-IB-MECA 10, 100 nM): able to induce HIF-1α protein; IL-8 secretion (IL-8; A2B receptor agonist 1 μM): 142±8 % of IL-8 secretion; EC50 (IL-8; Homo sapiens, U-937, dose-response curve, U937 derived foam cells, hypoxic, read-out: EC50 for stimulation of IL-8 secretion): 0.058 ± 0.006 µM
CCCn1c(=O)c2[nH]c(C3CCCC3)nc2n(CCC)c1=O [DPCPX, 1,3-dipropyl-8-cyclopentylxanthine]	not			
CCCn1c(=O)c2nc(-c3cc(OCC(=O)Nc4ccc5c(c4)OCO5)nn3C)[nH]c2n(CCC)c1=O [MRE-2029F20, N-1,3-benzodioxol-5-yl-2-{[5-(2,6-dioxo-1,3-dipropyl-2,3,6,9-tetrahydro-1H-purin-8-yl)-1-methyl-1H-pyrazol-3-yl]oxy}acetamide]	blocked	partially antagonized	strongly reduced	block of the effect of the A2B receptor agonist (1 μM) on IL-8 secretion (IL-8; U937 derived foam cells): completely blocked; effect on oxLDL and adenosine induced foam cells formation (Oil red O) (PMA-treated U937 cells; antagonist 100 nM): blocked the foam cells formation; also recorded: inhibition of foam cell formation
CCCn1cc2c(nc(NC(=O)Nc3ccc(OC)cc3)n3nc(-c4ccco4)nc23)n1 [MRE-3008F20, 5-N-(4-methoxyphenyl-carbamoyl)amino-8-propyl-2-(2furyl)-pyrazolo-[4,3e]-1,2,4-triazolo[1,5-c]pyrimidine]	not	partially antagonized	strongly reduced	effect on oxLDL and adenosine induced foam cells formation (Oil red O) (PMA-treated U937 cells; antagonist 100 nM): blocked the foam cells formation; also recorded: inhibition of foam cell formation
Nc1nc2c(cnn2CCc2ccccc2)c2nc(-c3ccco3)nn12 [SCH 58261]	not	partially antagonized	inhibited to lesser extent	
COc1ccccc1NC(=O)Nc1nc(-c2cccnc2)nc2ccccc12 [VUF 5574]				effect on oxLDL and adenosine induced foam cells formation (Oil red O) (PMA-treated U937 cells; antagonist 10 nM): blocked the foam cells formation; also recorded: inhibition of foam cell formation
Nc1ncnc2c1ncn2[C@@H]1O[C@H](CO)[C@@H](O)[C@H]1O [adenosine]				increase of VEGF levels (VEGF; supernatant of U937 derived foam cells): 165±10%; increase of IL-8 levels (IL-8; adenosine 100 μM, supernatant of U937 derived foam cells, hypoxic): 158±10%; effect on oxLDL-induced foam cell formation (Oil red O) (PMA-treated U937 cells): increased
